Laboratory results as given in publication PMC6282443 (Journal of Enzyme Inhibition and Medicinal Chemistry, 2018).
Where two headings read alike, the source gives them in different places.

Tests used:
Type in all cases: cell-based, human
HepG2 cells = assay: MTT anti-proliferative assay, HepG2; conditions: read-out: Anti-proliferative activity IC50, HepG2
MCF-7 cells = assay: MTT anti-proliferative assay, MCF-7; conditions: read-out: Anti-proliferative activity IC50, MCF-7
H1975 cells = conditions: H1975, MTT; for IC50: read-out: Anti-proliferative activity IC50, H1975, 72 h
A549 cells = assay: cells; conditions: read-out: Anti-proliferative activity IC50, A549

Compound	IC50 (HepG2 cells; Homo sapiens, HepG2, 72 h)	IC50 (MCF-7 cells; Homo sapiens, MCF7, 72 h)	IC50 (A549 cells; Homo sapiens, A549, 72 h)	IC50 (HepG2 cells; HepG2, MTT, 72 h)	IC50 (MCF-7 cells; MCF-7, MTT, 72 h)	IC50 (H1975 cells)	IC50 (A549 cells; A549, MTT, 72 h)	inhibitory activity against H1975 cells (in words) (H1975 cells)
COc1cc2ncnc(Nc3ccc(F)c(Cl)c3)c2cc1NC(=O)N/N=C/c1ccc(CN(C)C)cc1 [Compound 19, (E)-N-(4-((3-chloro-4-fluorophenyl)amino)-7-methoxyquinazolin-6-yl)-2-(4-((dimethylamino)methyl)benzylidene)hydrazine-1-carboxamide]	9.89 ± 0.96 µM	3.8 ± 0.22 µM	7.99 ± 0.82 µM					moderate inhibitory activity
COc1cc2ncnc(Nc3ccc(F)c(Cl)c3)c2cc1NC(=O)N/N=C/c1ccc(CN2CCN(C)CC2)cc1 [Compound 24, (E)-N-(4-((3-chloro-4-fluorophenyl)amino)-7-methoxyquinazolin-6-yl)-2-(4-((4-methylpiperazin-1-yl)methyl)benzylidene)hydrazine-1-carboxamide]	2.86 ± 0.13 µM	3.12 ± 0.38 µM	4.32 ± 0.61 µM					moderate inhibitory activity
COc1cc2ncnc(Nc3ccc(F)c(Cl)c3)c2cc1NC(=O)N/N=C/c1ccc(OCCN(C)C)cc1 [Compound 31, (E)-N-(4-((3-chloro-4-fluoropheny)amino)-7-methoxyquinazolin-6-yl)-2-(4-(2-(dimethylamino)ethoxy)benzylidene)hydrazine-1-carboxamide]				36.3 ± 2.57 µM	37.2 ± 2.89 µM	45.3 ± 3.34 µM	40.1 ± 4.03 µM	
CCN(CC)CCOc1ccc(/C=N/NC(=O)Nc2cc3c(Nc4ccc(F)c(Cl)c4)ncnc3cc2OC)cc1 [Compound 32, (E)-N-(4-((3-chloro-4-fluoropheny)amino)-7-methoxyquinazolin-6-yl)-2-(4-(2-(diethylamino)ethoxy)benzylidene)hydrazine-1-carboxamide]				13.2 ± 1.03 µM	12.5 ± 1.24 µM	32.6 ± 3.45 µM	8.62 ± 1.13 µM	poorer cellular activity
COc1cc2ncnc(Nc3ccc(F)c(Cl)c3)c2cc1NC(=O)N/N=C/c1ccc(OCCN2CCCCC2)cc1 [Compound 34, (E)-N-(4-((3-chloro-4-fluoropheny)amino)-7-methoxyquinazolin-6-yl)-2-(4-(2-(piperidin-1-yl)ethoxy)benzylidene)hydrazine-1-carboxamide]				12.7 ± 1.25 µM	9.21 ± 1.16 µM	61.6 ± 5.67 µM	10.8 ± 1.43 µM	poorer cellular activity
COc1cc2ncnc(Nc3ccc(Cl)c(F)c3)c2cc1NC(=O)N/N=C/c1ccc(OCCN2CCOCC2)cc1 [Compound 35, (E)-N-(4-((4-chloro-3-fluorophenyl)amino)-7-methoxyquinazolin-6-yl)-2-(4-(2-morpholinoethoxy)benzylidene) hydrazine-1-carboxamide]				16.5 ± 1.42 µM	21.8 ± 1.34 µM	25.2 ± 1.35 µM	19.5 ± 1.35 µM	
O=C(N/N=C/c1ccc(OCCN2CCCC2)cc1)Nc1cc2c(Nc3ccc(F)c(Cl)c3)ncnc2cc1O[C@H]1CCOC1 [Compound 39, (S,E)-N-(4-((3-chloro-4-fluoropheny)amino)-7-((tetrahydrofuran-3-yl)oxy)quinazolin-6-yl)-2-(4-(2-(pyrrolidin-1-yl)ethoxy)benzylidene)hydrazine-1-carboxamide]				67.3 ± 6.24 µM	64.8 ± 5.35 µM	> 100 µM	63.9 ± 5.35 µM	
O=C(N/N=C/c1ccc(OCCN2CCOCC2)cc1)Nc1cc2c(Nc3ccc(F)c(Cl)c3)ncnc2cc1O[C@H]1CCOC1 [Compound 41, (S,E)-N-(4-((3-chloro-4-fluoropheny)amino)-7-((tetrahydrofuran-3-yl)oxy)quinazolin-6-yl)-2-(4-(2-morpholinoethoxy)benzylidene)hydrazine-1-carboxamide]				40.2 ± 3.04 µM	28.8 ± 1.29 µM	25.5 ± 1.44 µM	37.8 ± 2.54 µM	
COc1cc2ncnc(Nc3ccc(F)c(Cl)c3)c2cc1NC(=O)N/N=C/c1ccc(OCCCN2CCOCC2)cc1 [Compound 47, (E)-N-(4-((3-chloro-4-fluoropheny)amino)-7-methoxyquinazolin-6-yl)-2-(4-(3-morpholinopropoxy)benzylidene)hydrazine-1-carboxamide]				28.4 ± 1.78 µM	27.5 ± 1.29 µM	41.2 ± 2.07 µM	34.8 ± 1.26 µM	
(S,E)-N-(4-((3-chloro-4-fluoropheny)amino)-7-((tetrahydrofuran-3-yl)oxy)quinazolin-6-yl)-2-(4-(2-(4-methylpi perazin-1-yl)ethoxy)benzylidene)hydrazine-1-carboxamide [Compound 42]				13.4 ± 0.54 µM	10.8 ± 0.68 µM	11.2 ± 1.34 µM	2.52 ± 0.54 µM	moderate inhibitory activity

Now from value to compound, other results behind:

IC50 (HepG2 cells; Homo sapiens, HepG2, 72 h)	IC50 (MCF-7 cells; Homo sapiens, MCF7, 72 h)	IC50 (A549 cells; Homo sapiens, A549, 72 h)	IC50 (HepG2 cells; HepG2, MTT, 72 h)	IC50 (MCF-7 cells; MCF-7, MTT, 72 h)	IC50 (H1975 cells)	IC50 (A549 cells; A549, MTT, 72 h)	Compound	inhibitory activity against H1975 cells (in words) (H1975 cells)
9.49 ± 0.47 µM	4.14 ± 0.57 µM	8.71 ± 0.54 µM					CCN(CC)Cc1ccc(/C=N/NC(=O)Nc2cc3c(Nc4ccc(F)c(Cl)c4)ncnc3cc2OC)cc1 [Compound 20, (E)-N-(4-((3-chloro-4-fluorophenyl)amino)-7-methoxyquinazolin-6-yl)-2-(4-((diethylamino)methyl)benzylidene)hydrazine-1-carboxamide]	poorer cellular activity
21.3 ± 1.47 µM	8.9 ± 0.48 µM	17.8 ± 1.22 µM					COc1cc2ncnc(Nc3ccc(F)c(Cl)c3)c2cc1NC(=O)N/N=C/c1ccc(CN2CCCC2)cc1 [Compound 21, (E)-N-(4-((3-chloro-4-fluorophenyl)amino)-7-methoxyquinazolin-6-yl)-2-(4-(pyrrolidin-1-ylmethyl)benzylidene)hydrazine-1-carboxamide]	moderate inhibitory activity
3.76 ± 0.21 µM	4.41 ± 0.28 µM	4.13 ± 0.54 µM					CN(C)Cc1ccc(/C=N/NC(=O)Nc2cc3c(Nc4ccc(F)c(Cl)c4)ncnc3cc2O[C@H]2CCOC2)cc1 [Compound 25, (S,E)-N-(4-((3-chloro-4-fluorophenyl)amino)-7-((tetrahydrofuran-3-yl)oxy)quinazolin-6-yl)-2-(4-((dimethylamino)methyl)benzylidene)hydrazine-1-carboxamide]	poorer cellular activity
			10.2 ± 1.09 µM	6.2 ± 0.81 µM	24.7 ± 1.86 µM	11.4 ± 1.07 µM	COc1cc2ncnc(Nc3ccc(F)c(Cl)c3)c2cc1NC(=O)N/N=C/c1ccc(OCCN2CCN(C)CC2)cc1 [Compound 36, (E)-N-(4-((3-chloro-4-fluoropheny)amino)-7-methoxyquinazolin-6-yl)-2-(4-(2-(4-methylpiperazin-1-yl)ethoxy)benzylidene)hydrazine-1-carboxamide]	poorer cellular activity
			8.2 ± 0.81 µM	11.7 ± 1.34 µM	10.2 ± 1.12 µM	14.7 ± 1.35 µM	CN(C)CCOc1ccc(/C=N/NC(=O)Nc2cc3c(Nc4ccc(F)c(Cl)c4)ncnc3cc2O[C@H]2CCOC2)cc1 [Compound 37, (S,E)-N-(4-((3-chloro-4-fluoropheny)amino)-7-((tetrahydrofuran-3-yl)oxy)quinazolin-6-yl)-2-(4-(2-(dimethylamino)ethoxy)benzylidene)hydrazine-1-carboxamide]	moderate inhibitory activity
			17.4 ± 1.24 µM	24.2 ± 1.23 µM	35.3 ± 2.35 µM	24.2 ± 1.24 µM	O=C(N/N=C/c1ccc(OCCN2CCCCC2)cc1)Nc1cc2c(Nc3ccc(F)c(Cl)c3)ncnc2cc1O[C@H]1CCOC1 [Compound 40, (S,E)-N-(4-((3-chloro-4-fluoropheny)amino)-7-((tetrahydrofuran-3-yl)oxy)quinazolin-6-yl)-2-(4-(2-(piperidin-1-yl)ethoxy)benzylidene)hydrazine-1-carboxamide]	
			9.58 ± 0.94 µM	6.85 ± 0.65 µM	3.1 ± 0.49 µM	4.01 ± 0.56 µM	COc1cc2ncnc(Nc3ccc(F)c(Cl)c3)c2cc1NC(=O)N/N=C/c1ccc(OCCCN2CCCCC2)cc1 [Compound 46, (E)-N-(4-((3-chloro-4-fluoropheny)amino)-7-methoxyquinazolin-6-yl)-2-(4-(3-(piperidin-1-yl)propoxy)benzylidene)hydrazine-1-carboxamide]	
			46.7 ± 4.46 µM	44.2 ± 3.75 µM	49.3 ± 4.68 µM	36.4 ± 2.78 µM	(E)-N-(4-((3-chloro-4-fluoropheny)amino)-7-methoxyquinazolin-6-yl)-2-(4-(2-(pyrrolidin-1-yl)ethoxy)benzylid ene)hydrazine-1-carboxamide [Compound 33]	
			14.5 ± 1.27 µM	12.2 ± 0.89 µM	10.2 ± 1.26 µM	2.96 ± 0.36 µM	(E)-N-(4-((3-chloro-4-fluoropheny)amino)-7-methoxyquinazolin-6-yl)-2-(4-(3-(4-methylpiperazin-1-yl)propoxy) benzylidene)hydrazine-1-carboxamide [Compound 48]	moderate inhibitory activity
			> 100 µM	> 100 µM	> 100 µM	43.1 ± 3.34 µM	(E)-N-(4-((3-chloro-4-fluoropheny)amino)-7-methoxyquinazolin-6-yl)-2-(4-(3-(dimethylamino)propoxy)benzyl idene)hydrazine-1-carboxamide [Compound 43]	
			24.5 ± 1.27 µM	16.9 ± 1.34 µM	38.2 ± 1.23 µM	23.2 ± 1.47 µM	(E)-N-(4-((3-chloro-4-fluoropheny)amino)-7-methoxyquinazolin-6-yl)-2-(4-(3-(pyrrolidin-1-yl)propoxy)benzyli dene)hydrazine-1-carboxamide [Compound 45]	
			1.91 ± 0.34 µM	1.99 ± 0.68 µM	> 100 µM	3.01 ± 0.54 µM	(S,E)-N-(4-((3-chloro-4-fluoropheny)amino)-7-((tetrahydrofuran-3-yl)oxy)quinazolin-6-yl)-2-(4-(2-(diethylamin o)ethoxy)benzylidene)hydrazine-1-carboxamide [Compound 38]	poorer cellular activity
